Measured values as given in US20250295798A1, “LIGAND-DRUG CONJUGATE OF EXATECAN ANALOGUE, AND MEDICAL USE THEREOF” (BeiGene Switzerland GmbH, priority 2022, published 2025).
Read-outs that look alike come from different tables or passages of the source.

Columns and labels:
Format in all cases: cell-based, human
[1] = tested on: MDA-MB-453; assay: Compounds cellular killing in MDA-MB-453; conditions: for EC50 / Emax: Homo sapiens; for killing activity compared with 1-B: MDA-MB-453, FIG. 1
Method: Seeding cells MDA-MB-453 (2E3/well) into 96-well plate (Greiner: 655090), 100 ul/well. Incubation at 37° C., 5% CO2, overnight.
Adding the fresh growth-medium containing the varying concentrations of compounds, 50 ul/well.
Incubation at 37° C., 5% CO2, 6 days.
The cell viability detected by Cell Titer-Glo (Promega, G7573). Add 70 µL/well of CellTiter-Glo® Reagent in each well.
Allow the plates to incubate at room temperature for 10 minutes to stabilize luminescent signal.
Analyze with Microplate Reader.

[2] = tested on: A375; assay: Compounds cellular killing in A375; conditions: Homo sapiens, A375, 6 days, Cell Titer-Glo
In short: (§1)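 A375 (1E3/well) or Calu-6 (2E3/well) cells were seeded overnight, then exposed to varying compound concentrations for 6 days at 37 °C, 5% CO2. Viability was read by CellTiter-Glo luminescence.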

[3] = tested on: Calu-6; assay: Compounds cellular killing in Calu-6; conditions: Homo sapiens, Calu-6, 6 days, Cell Titer-Glo
In short: as §1

Row | SMILES | EC50 ([1]; MDA-MB-453, […]) [nM] | Emax ([1]; MDA-MB-453, […]) [%] | killing activity compared with 1-B [1] | Emax ([2]; A-375) [%] | Emax ([3]; Calu-6, […]) [%] | EC50 ([2]; A-375) [nM] | EC50 [3] [nM] | also measured
1 | CC[C@@]1(O)C(=O)OCc2c1cc1n(c2=O)Cc2c-1nc1cc(F)c(C)c3c1c2[C@@H](N1CCN(C)CC1)CC3 [Example 1-7, (1S,9S)-9-ethyl-5-fluoro-9-hydroxy-4-methyl-1-(4-methylpiperazin-1-yl)-1,2,3,9,12,15-hexahydro-10H,13H-benzo[de]pyrano[3′,4′:6,7]indolizino[1,2-b]quinoline-10,13-dione] | 1.2 | 96.8 | comparable killing activity to 1-B |  |  |  |  | 
2 | CC[C@@]1(O)C(=O)OCc2c1cc1n(c2=O)Cc2c-1nc1cc(F)c(C)c3c1c2[C@@H](N(C)C)CC3 [Example 1-5, (1S,9S)-1-(dimethylamino)-9-ethyl-5-fluoro-9-hydroxy-4-methyl-1,2,3,9,12,15-hexahydro-10H,13H-benzo[de]pyrano[3′,4′:6,7]indolizino[1,2-b]quinoline-10,13-dione] | 1.3 | 93.3 | comparable killing activity to 1-B |  |  |  |  | 
3 | CC[C@@]1(O)C(=O)OCc2c1cc1n(c2=O)Cc2c-1nc1cc(F)c(C)c3c1c2[C@@H](N)CC3 [Example 1-B, reference compound] |  |  |  | 100 | 98.4 |  |  | EC50 ([1]; MDA-MB-453, 6 days, Cell Titer-Glo, read-out: EC50): 0.9 nM; Emax ([1]; MDA-MB-453, 6 days, Cell Titer-Glo, read-out: Emax (%)): 99.4%
4 | CC[C@@]1(O)C(=O)OCc2c1cc1n(c2=O)Cc2c-1nc1cc(F)c(C)c3c1c2[C@@H](N1CCNCC1)CC3 [Example 1-6, (1S,9S)-9-ethyl-5-fluoro-9-hydroxy-4-methyl-1-(piperazin-1-yl)-1,2,3,9,12,15-hexahydro-10H,13H-benzo[de]pyrano[3′,4′:6,7]indolizino[1,2-b]quinoline-10,13-dione] | 3.3 | 93.4 | less potent than 1-B |  |  |  |  | 
5 | CC[C@@]1(O)C(=O)OCc2c1cc1n(c2=O)Cc2c-1nc1cc3c(c4c1c2[C@@H](NC(=O)CO)CC4)OCO3 [Example 2-11, N-((1S,10S)-10-ethyl-10-hydroxy-11,14-dioxo-2,3,10,11,14,16-hexahydro-1H,13H-benzo[de][1,3]dioxolo[4,5-g]pyrano[3′,4′:6,7]indolizino[1,2-b]quinolin-1-yl)-2-hydroxyacetamide] |  |  |  | 99.7 | 99.6 | 10.2 | 3.2 | 
6 | CC[C@@]1(O)C(=O)OCc2c1cc1n(c2=O)Cc2c-1nc1cc(F)c(C)c3c1c2C(OCCO)CC3 (single isomer, unassigned) [Example 2-45] |  |  |  | 100 | 99.2 | 1.3 | 0.7 | 
7 | CC[C@@]1(O)C(=O)OCc2c1cc1n(c2=O)Cc2c-1nc1cc(F)c(C)c3c1c2[C@@H](N(C)CCO)CC3 [Example 2-5, (1S,9S)-9-ethyl-5-fluoro-9-hydroxy-1-((2-hydroxyethyl)(methyl)amino)-4-methyl-1,2,3,9,12,15-hexahydro-10H,13H-benzo[de]pyrano[3′,4′:6,7]indolizino[1,2-b]quinoline-10,13-dione] |  |  |  | 98.8 | 98.9 | 0.9 | 0.3 | 
8 | CC[C@@]1(O)C(=O)OCc2c1cc1n(c2=O)Cc2c-1nc1cc(OC)cc3c1c2[C@@H](NC(=O)CO)CC3 [Example 2-28, N-((1S,9S)-9-ethyl-9-hydroxy-5-methoxy-10,13-dioxo-2,3,9,10,13,15-hexahydro-1H,12H-benzo[de]pyrano[3′,4′:6,7]indolizino[1,2-b]quinolin-1-yl)-2-hydroxyacetamide] |  |  |  |  | 98.7 |  |  | EC50 ([2]; A-375, […]): 13.8 nM; Emax ([2]; A-375, […]): 98.8%; EC50 ([3]; Calu-6, […]): 7.4 nM
9 | CC[C@@]1(O)C(=O)OCc2c1cc1n(c2=O)Cc2c-1nc1cc(F)c(O)c3c1c2[C@@H](N)CC3 [Example 1-3, (1S,9S)-1-amino-9-ethyl-5-fluoro-4,9-dihydroxy-1,2,3,9,12,15-hexahydro-10H,13H-benzo[de]pyrano[3′,4′:6,7]indolizino[1,2-b]quinoline-10,13-dione methanesulfonate] |  |  |  |  | 98.8 |  |  | EC50 ([2]; A-375, […]): 130 nM; Emax ([2]; A-375, […]): 98.4%; EC50 ([3]; Calu-6, […]): 38.5 nM
